27 compounds from patent US20100311714A1, “1H-IMIDAZO[4,5-c]QUINOLINONE COMPOUNDS” (priority 2009, published 2010) can be followed below.

Data set [1] deals with PKB Ser473 phosphorylation in Rat1-myr-HA-p110 alpha cells. Description: Reverse protein array, PKB Ser473 phosphorylation in Rat1-myr-HA-p110 alpha cells. The format is cell-based. The conditions noted are these: Rattus norvegicus, 0.5 h, 30 minutes compound incubation, read-out: p-PKB/IC50_alpha.
A short description of data set [2]: Parallel Artificial Membrane Permeability Assay (PAMPA) at pH 6.8. It is filed as physicochemical. The method, boiled down:
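PAMPA permeability measured at pH 6.8 following the Wohnsland and Faller method; value reported as log Pe.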

Turning to `COc1ccc(-c2ccc3ncc4c(c3c2)n(-c2cccnc2OC)c(=O)n4C)cn1` [Example 1.1, 1-(2-Methoxy-pyridin-3-yl)-8-(6-methoxy-pyridin-3-yl)-3-methyl-1,3-dihydro-imidazo[4,5-c]quinolin-2-one], the IC50 in data set [1] was 42.9 nM. In addition, the “HT-perm/logPe pH6.8” value in data set [2] is −3.6.
As to `COc1ncccc1-n1c(=O)n(C)c2cnc3ccc(-c4cnc(N)c(C(F)(F)F)c4)cc3c21` [Example 1.3, 8-(6-Amino-5-trifluoromethyl-pyridin-3-yl)-1-(2-methoxy-pyridin-3-yl)-3-methyl-1,3-dihydro-imidazo[4,5-c]quinolin-2-one], in data set [1], the IC50 was 6.94 nM. Further, the “HT-perm/logPe pH6.8” value in data set [2] was −3.8.
For `CNc1ccc(-c2ccc3ncc4c(c3c2)n(-c2cccnc2OC)c(=O)n4C)cn1` [Example 1.4, 1-(2-Methoxy-pyridin-3-yl)-3-methyl-8-(6-methylamino-pyridin-3-yl)-1,3-dihydro-imidazo[4,5-c]quinolin-2-one], in that order: 8.68 nM and −3.9.
For `CCOc1ccc(-c2ccc3ncc4c(c3c2)n(-c2cccnc2OC)c(=O)n4C)cn1` [Example 1.5, 8-(6-Ethoxy-pyridin-3-yl)-1-(2-methoxy-pyridin-3-yl)-3-methyl-1,3-dihydro-imidazo[4,5-c]quinolin-2-one], in data set [1], the IC50 amounted to 9.35 nM. For the same compound, in data set [2], the “HT-perm/logPe pH6.8” value was −3.6.
For `Cc1ncccc1-n1c(=O)n(C)c2cnc3ccc(-c4cnc5c(ccn5C)c4)cc3c21` [Example 2.14, 3-Methyl-1-(2-methyl-pyridin-3-yl)-8-(1-methyl-1H-pyrrolo[2,3-b]pyridin-5-yl)-1,3-dihydro-imidazo[4,5-c]quinolin-2-one], the IC50 in data set [1] came out at 7.38 nM. For the same compound, in data set [2], the “HT-perm/logPe pH6.8” value is −3.9.
Regarding `CCOc1cc(-c2ccc3ncc4c(c3c2)n(-c2cccnc2C)c(=O)n4C)cnc1C` [Example 2.22, 8-(5-Ethoxy-6-methyl-pyridin-3-yl)-3-methyl-1-(2-methyl-pyridin-3-yl)-1,3-dihydro-imidazo[4,5-c]quinolin-2-one], in data set [1], the IC50 stood at 11 nM. In addition, the “HT-Perm logPe pH6.8” value in data set [2] is reported as −3.7.
Turning to `Cc1cccnc1-n1c(=O)n(C)c2cnc3ccc(-c4cnc5ccccc5c4)cc3c21` [Example 3.8, 3-Methyl-1-(3-methyl-pyridin-2-yl)-8-quinolin-3-yl-1,3-dihydro-imidazo[4,5-c]quinolin-2-one], the IC50 in data set [1] was 54.9 nM. Further, the “HT-perm/logPe pH6.8” value in data set [2] was −3.9.
On to `COc1ccc(-c2ccc3ncc4c(c3c2)n(-c2ncccc2C)c(=O)n4C)cn1` [Example 3.13, 8-(6-Methoxy-pyridin-3-yl)-3-methyl-1-(3-methyl-pyridin-2-yl)-1,3-dihydro-imidazo[4,5-c]quinolin-2-one], for which the IC50 in data set [1] is 308 nM. The “HT-perm/logPe pH6.8” value in data set [2] is recorded as −3.7.
In the case of `COc1ccc(-c2ccc3ncc4c(c3c2)n(-c2cccnc2)c(=O)n4C)cc1OC` [Example 5.2, 8-(3,4-Dimethoxy-phenyl)-3-methyl-1-pyridin-3-yl-1,3-dihydro-imidazo[4,5-c]quinolin-2-one], the IC50 in data set [1] is 18.1 nM. In addition, in data set [2], the “HT-perm/logPe pH6.8” value is reported as −3.9.
For `COc1ccc(-c2ccc3ncc4c(c3c2)n(-c2cccnc2)c(=O)n4C)cn1` [Example 5.4, 8-(6-Methoxy-pyridin-3-yl)-3-methyl-1-pyridin-3-yl-1,3-dihydro-imidazo[4,5-c]quinolin-2-one], in that order: 92.4 nM and −3.7.
With `COc1ccc(-n2c(=O)n(C)c3cnc4ccc(-c5cnc(N)c(C(F)(F)F)c5)cc4c32)c(OC)n1` [Example 8.1, 8-(6-Amino-5-trifluoromethyl-pyridin-3-yl)-1-(2,6-dimethoxy-pyridin-3-yl)-3-methyl-1,3-dihydro-imidazo[4,5-c]quinolin-2-one], the IC50 in data set [1] amounted to 7.27 nM. Also, the “HT-perm/logPe pH6.8” value in data set [2] is −4.1.
Turning to `COCCOc1cc(-c2ccc3ncc4c(c3c2)n(-c2ccc(OC)nc2OC)c(=O)n4C)cnc1C` [Example 8.9, 1-(2,6-Dimethoxy-pyridin-3-yl)-8-[5-(2-methoxy-ethoxy)-6-methyl-pyridin-3-yl]-3-methyl-1,3-dihydro-imidazo[4,5-c]quinolin-2-one], in data set [1], the IC50 turned out to be 24.9 nM. The “HT-Perm logPe pH6.8” value in data set [2] is recorded as −3.9.
In the case of `CCN(C)c1ccc(-n2c(=O)n(C)c3cnc4ccc(-c5ccc(NC)nc5)cc4c32)c(C)n1` [Example 12.1, 1-[6-(Ethyl-methyl-amino)-2-methyl-pyridin-3-yl]-3-methyl-8-(6-methylamino-pyridin-3-yl)-1,3-dihydro-imidazo[4,5-c]quinolin-2-one], in data set [1], the IC50 amounted to 5.2 nM. The “HT-Perm logPe pH6.8” value in data set [2] is listed as −4.1.
Consider `Cc1ccc(-n2c(=O)n(C)c3cnc4ccc(-c5cnc(N)c(C(F)(F)F)c5)cc4c32)c(C)n1` [Example 14.5, 8-(6-Amino-5-trifluoromethyl-pyridin-3-yl)-1-(2,6-dimethyl-pyridin-3-yl)-3-methyl-1,3-dihydro-imidazo[4,5-c]quinolin-2-one], for which the IC50 in data set [1] amounted to 4.9 nM. Further, the “HT-Perm logPe pH6.8” value in data set [2] is −3.8.
As for `Cc1ccc(-n2c(=O)n(C)c3cnc4ccc(-c5cnc6c(ccn6C)c5)cc4c32)c(C)n1` [Example 14.7, 1-(2,6-Dimethyl-pyridin-3-yl)-3-methyl-8-(1-methyl-1H-pyrrolo[2,3-b]pyridin-5-yl)-1,3-dihydro-imidazo[4,5-c]quinolin-2-one], in data set [1], the IC50 was determined as 11.5 nM. Moreover, the “HT-Perm logPe pH6.8” value in data set [2] is recorded as −4.3.
For `COCCN(C)c1ccc(-n2c(=O)n(C)c3cnc4ccc(-c5cnc(N)c(C(F)(F)F)c5)cc4c32)c(C)n1` [Example 15.1, 8-(6-Amino-5-trifluoromethyl-pyridin-3-yl)-1-{6-[(2-methoxy-ethyl)-methyl-amino]-2-methyl-pyridin-3-yl}-3-methyl-1,3-dihydro-imidazo[4,5-c]quinolin-2-one], in that order: less than 4.57 nM and −4.
For `CCOc1ccc(-c2ccc3ncc4c(c3c2)n(-c2ccc(N(C)CCOC)nc2C)c(=O)n4C)cn1` [Example 15.3, 8-(6-Ethoxy-pyridin-3-yl)-1-{6-[(2-methoxy-ethyl)-methyl-amino]-2-methyl-pyridin-3-yl}-3-methyl-1,3-dihydro-imidazo[4,5-c]quinolin-2-one], the IC50 in data set [1] is 12.3 nM. Further, in data set [2], the “HT-Perm logPe pH6.8” value is reported as −3.8.
For `CNc1ccc(-c2ccc3ncc4c(c3c2)n(-c2ccc(N(C)CCOC)nc2C)c(=O)n4C)cn1` [Example 15.4, 1-{6-[(2-Methoxy-ethyl)-methyl-amino]-2-methyl-pyridin-3-yl}-3-methyl-8-(6-methylamino-pyridin-3-yl)-1,3-dihydro-imidazo[4,5-c]quinolin-2-one], in that order: 7.2 nM and −3.7.
With `COCCN(C)c1ccc(-n2c(=O)n(C)c3cnc4ccc(-c5cnc(CO)c(OC)c5)cc4c32)c(C)n1` [Example 15.9, 8-(6-Hydroxymethyl-5-methoxy-pyridin-3-yl)-1-{6-[(2-methoxy-ethyl)-methyl-amino]-2-methyl-pyridin-3-yl}-3-methyl-1,3-dihydro-imidazo[4,5-c]quinolin-2-one], the IC50 in data set [1] is 10.8 nM.
Same read-out and setting: with `CCOc1ccc(-c2ccc3ncc4c(c3c2)n(-c2ccc(NC(=O)COC)nc2C)c(=O)n4C)cn1` [Example 20.2, N-{5-[8-(6-Ethoxy-pyridin-3-yl)-3-methyl-2-oxo-2,3-dihydro-imidazo[4,5-c]quinolin-1-yl]-6-methyl-pyridin-2-yl}-2-methoxy-acetamide] the figure was 50 nM.
Still for that read-out and setting: with `CNc1ncc(-c2ccc3ncc4c(c3c2)n(-c2ccc(NC(=O)COC)nc2C)c(=O)n4C)cn1` [Example 20.3, 2-Methoxy-N-{6-methyl-5-[3-methyl-8-(2-methylamino-pyrimidin-5-yl)-2-oxo-2,3-dihydro-imidazo[4,5-c]quinolin-1-yl]-pyridin-2-yl}-acetamide] the figure was 6.6 nM; with `CNc1ccc(-c2ccc3ncc4c(c3c2)n(-c2ccc(NC(=O)COC)nc2C)c(=O)n4C)cn1` [Example 20.4, 2-Methoxy-N-{6-methyl-5-[3-methyl-8-(6-methylamino-pyridin-3-yl)-2-oxo-2,3-dihydro-imidazo[4,5-c]quinolin-1-yl]-pyridin-2-yl}-acetamide], 5.6 nM.
Same read-out and setting: with `COCC(=O)Nc1ccc(-n2c(=O)n(C)c3cnc4ccc(-c5cncc(OC(C)C)c5)cc4c32)c(C)n1` [Example 20.5, N-{5-[8-(5-Isopropoxy-pyridin-3-yl)-3-methyl-2-oxo-2,3-dihydro-imidazo[4,5-c]quinolin-1-yl]-6-methyl-pyridin-2-yl}-2-methoxy-acetamide] the figure was 90.2 nM; with `COCCOc1ccc(-n2c(=O)n(C)c3cnc4ccc(-c5cncc(N6CCC6)c5)cc4c32)c(C)n1` [Example 22.2, 8-(5-Azetidin-1-yl-pyridin-3-yl)-1-[6-(2-methoxy-ethoxy)-2-methyl-pyridin-3-yl]-3-methyl-1,3-dihydro-imidazo[4,5-c]quinolin-2-one], 6.4 nM.
Turning to `COCCOc1ccc(-n2c(=O)n(C)c3cnc4ccc(-c5cnc(COC)c(OC)c5)cc4c32)c(C)n1` [Example 22.3, 1-[6-(2-Methoxy-ethoxy)-2-methyl-pyridin-3-yl]-8-(5-methoxy-6-methoxymethyl-pyridin-3-yl)-3-methyl-1,3-dihydro-imidazo[4,5-c]quinolin-2-one], the IC50 in data set [1] worked out at 24.2 nM.
Still for that read-out and setting: as for `CCNc1cc(-c2ccc3ncc4c(c3c2)n(-c2ccc(N3CC(F)(F)C3)nc2C)c(=O)n4C)cnc1CO` [Example 24.3, 1-[6-(3,3-Difluoro-azetidin-1-yl)-2-methyl-pyridin-3-yl]-8-(5-ethylamino-6-hydroxymethyl-pyridin-3-yl)-3-methyl-1,3-dihydro-imidazo[4,5-c]quinolin-2-one], the figure is 5.9 nM.
For `Cc1nc(C(C)(C)O)ccc1-n1c(=O)n(C)c2cnc3ccc(-c4cncc(OC(C)C)c4)cc3c21` [Example 31.9, 1-[6-(1-Hydroxy-1-methyl-ethyl)-2-methyl-pyridin-3-yl]-8-(5-isopropoxy-pyridin-3-yl)-3-methyl-1,3-dihydro-imidazo[4,5-c]quinolin-2-one], the “HT-Perm logPe pH6.8” value in data set [2] is reported as −3.8.
